Test results as given in patent US20090156674A1, “Valnemulin Salts with Organic Acids” (priority 2005, published 2009).
Where a name gives a salt, the structure may show the parent alone.

Key:
[1] = Stability of valnemulin acid addition salts in the pelleting procedure for animal feed; type: physicochemical; details: pelleting at 75° C.; wheat-based animal feed; 100 ppm valnemulin in the feed
Procedure: In order to test the stability of the valnemulin acid addition salts in animal feed, the calculated amount of the acid addition salt (corresponding to a target dose of 100 ppm) is added to ca. 4 kg of wheat-based animal feed and mixed in a high-speed laboratory mixer for 60 seconds to form a first premix (PM1). The ca. 4 kg of premix PM1 is then transferred to a horizontal mixer and mixed with 21 kg of the same feed for a further 6 minutes to form a further premix (PM2). The ca. 25 kg of premix PM2 is transferred to a vertical mixer and intimately mixed with a further 175 kg of the same animal feed for 8 minutes, whereupon a homogeneous, treated mixture is obtained, which contains valnemulin concentrations corresponding to the target dose of 100 ppm. Prior to further processing, samples of ca. 100 g each are taken from the upper, centre and lower part of the medicinal feed mixture, in order to test its homogeneity. In addition, further samples are taken randomly for use in stability tests. The finished, treated medicinal feed is now ready for pelleting. […] The 200 kg of finished medicinal feed is then fed continuously into the pelleting press of the feed mill over the course of ca. 20 mins. Afterwards, the pellets are dried in batches in a continuous stream of air, and cooled. To examine the homogeneity of the pelleted medicinal feed, several samples of ca. 100 g each are taken at the start, middle and end of the pelleting process. In addition, samples are taken in a random order from each batch, in order to test the stability in storage. […] In the following table 1, by way of example, the stabilities of different acid addition salts of valnemulin in the pelleting procedure for the animal feed are compared.

[2] = Stability of valnemulin during production and storage of feed pellets (background statements); type: physicochemical
Description: It has been shown that valnemulin is rather unstable when producing pelleted feed, particularly when in contact with the feed material, especially constituents of vegetable or animal origin. This leads to substantial losses already at the preparation stage. In the preparation of pelleted feed, the dried organic starting material of animal or vegetable origin is ground, mixed intimately with the admixtures, vitamins, trace elements and other additives, i.e. substantially homogenized, and then optionally moistened with ca. 5 to 10% by weight water and compressed into feed pellets at elevated temperatures ranging from ca. 60 to 100° C. at pressures of ca. 1 to 100 kbar. Short-term, local temperature peaks in the press, so-called flashes, even reach 200° C. for a short time. The retention time of the mass in the press is generally from ca. 5 to 180 seconds and depends inter alia on the size of the pellets.
Whereas valnemulin in the form of the dried, amorphous hydrochloride salt withstands these temperatures for a short time without significant decomposition and can be stored at room temperature even for a few months without any measurable loss of active ingredient, this active ingredient decomposes relatively rapidly under pressure and in intimate contact with animal or vegetable feed constituents and at the prevailing elevated temperatures. […]

Loss of active substance in the pelleting procedure, average loss [1] [%] | content of active ingredient in finished pellets on storage ([2]; finished pellets, room temperature, after three months) | active ingredient lost in compression into feed pellets ([2]; raised pressure and elevated temperature kept as short as possible, pellets immediately cooled to room temperature, contact with feed constituents) | Structure (SMILES)
11.6 |  |  | C=C[C@]1(C)C[C@@H](OC(=O)CSC(C)(C)CNC(=O)[C@H](N)C(C)C)[C@]2(C)[C@H](C)CC[C@]3(CCC(=O)[C@H]32)[C@@H](C)[C@@H]1O [valnemulin hydrochloride]
0.2 |  |  | C=C[C@]1(C)C[C@@H](OC(=O)CSC(C)(C)CNC(=O)[C@H](N)C(C)C)[C@]2(C)[C@H](C)CC[C@]3(CCC(=O)[C@H]32)[C@@H](C)[C@@H]1O.O=C(O)/C=C/C(=O)O [valnemulin hydrogen fumarate, Valnemulin Hydrogen Fumarate]
0.3 |  |  | C=CC1(C)CC(OC(=O)CSC(C)(C)CNC(=O)C(N)C(C)C)C2(C)C(C)CCC3(CCC(=O)C32)C(C)C1O.O=C(O)C(O)C(O)C(=O)O [valnemulin D-hydrogen tartrate, Valnemulin D-Hydrogen Tartrate]
 | below 60% | one quarter to one third | C=C[C@]1(C)C[C@@H](OC(=O)CSC(C)(C)CNC(=O)C(N)C(C)C)[C@]2(C)C(C)CC[C@]3(CCC(=O)C32)[C@@H](C)[C@@H]1O (some centres unmarked) [valnemulin, Valnemulin]
